Here are results for 26 molecules from patent US8143290B2, “Chemical compounds 572” (AstraZeneca AB, priority 2006, dated 2012).

The assay deals with T1, recombinant human GR (Homo sapiens, UniProt P04150).
T1 construct: purchased Panvera/Invitrogen P2812 (kit P2893)
T1 sequence (P04150 1-777): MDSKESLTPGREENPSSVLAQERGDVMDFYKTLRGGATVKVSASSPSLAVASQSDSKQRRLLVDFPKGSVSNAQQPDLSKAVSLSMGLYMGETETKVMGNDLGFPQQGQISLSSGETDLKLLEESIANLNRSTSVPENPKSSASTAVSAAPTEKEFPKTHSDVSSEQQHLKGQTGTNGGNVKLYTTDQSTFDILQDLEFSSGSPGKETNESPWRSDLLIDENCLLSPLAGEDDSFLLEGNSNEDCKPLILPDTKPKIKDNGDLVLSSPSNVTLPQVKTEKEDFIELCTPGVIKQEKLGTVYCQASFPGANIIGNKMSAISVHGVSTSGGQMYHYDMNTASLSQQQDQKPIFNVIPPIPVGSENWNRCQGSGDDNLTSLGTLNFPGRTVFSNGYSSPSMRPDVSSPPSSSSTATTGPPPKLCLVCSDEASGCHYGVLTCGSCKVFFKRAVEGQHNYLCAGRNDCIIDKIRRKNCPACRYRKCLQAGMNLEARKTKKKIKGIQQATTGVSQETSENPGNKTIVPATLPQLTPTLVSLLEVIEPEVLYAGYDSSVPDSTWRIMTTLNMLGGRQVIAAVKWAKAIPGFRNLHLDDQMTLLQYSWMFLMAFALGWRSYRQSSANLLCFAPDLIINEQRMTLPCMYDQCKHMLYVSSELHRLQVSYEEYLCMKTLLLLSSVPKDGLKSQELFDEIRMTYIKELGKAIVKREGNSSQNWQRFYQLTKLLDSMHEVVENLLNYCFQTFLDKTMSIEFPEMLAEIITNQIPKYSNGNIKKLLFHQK
Kind of assay: Human Glucocorticoid Receptor (GR) Assay, fluorescence polarization. Format: binding. The conditions noted are these: GS Red tracer, incubated 2 h at r.t., XLfit model 205, read-out: GRhuFL_FP_v2 Mean IC50. The essentials:
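After 2 h dark incubation at r.t., polarization reported displacement of the GS Red tracer from recombinant GR, in buffer with phosphate, molybdate, EDTA, DTT and Stabilizing Peptide. Controls: dexamethasone (100%) and DMSO (0%).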
With `C[C@H](NC(=O)C(C)(C)C)[C@H](Oc1ccc2c(cnn2-c2ccc(F)cc2)c1)c1cccc(Cl)c1` [Example 178, N-[(1R,2S)-1-(3-chlorophenyl)-1-[1-(4-fluorophenyl)indazol-5-yl]oxy-propan-2-yl]-2,2-dimethyl-propanamide], the IC50 (as a rule, the midpoint of a concentration-inhibition curve) was found to be 3.9 nM.
Take `C[C@H](NC(=O)C1(C)CC1)[C@H](Oc1ccc2c(cnn2-c2ccc(F)cc2)c1)c1cc(F)cc(Cl)c1` [Example 223, N-[(1R,2S)-1-(3-chloro-5-fluoro-phenyl)-1-[1-(4-fluorophenyl)indazol-5-yl]oxy-propan-2-yl]-1-methyl-cyclopropane-1-carboxamide]: the IC50 worked out at 3.9 nM.
Take `COc1ccc(F)cc1[C@@H](Oc1ccc2c(cnn2-c2ccc(F)cc2)c1)[C@H](C)NC(=O)C(C)(C)C` [Example 181, N-[(1R,2S)-1-(5-fluoro-2-methoxy-phenyl)-1-[1-(4-fluorophenyl)indazol-5-yl]oxy-propan-2-yl]-2,2-dimethyl-propanamide]: the IC50 was 3.2 nM.
In the case of `C[C@H](NC(=O)C(Cl)Cl)[C@H](Oc1ccc2c(cnn2-c2ccc(F)cc2)c1)c1ccccc1` [Example 39, 2,2-Dichloro-N-[(1R,2S)-1-[1-(4-fluorophenyl)indazol-5-yl]oxy-1-phenyl-propan-2-yl]acetamide], the concentration for half-maximal inhibition (IC50) was determined as 6.4 nM.
With `Cc1ccc(F)cc1[C@@H](Oc1ccc2c(cnn2-c2ccc(F)cc2)c1)[C@H](C)NC(=O)C1(C)CC1` [Example 220, N-[(1R,2S)-1-(5-fluoro-2-methyl-phenyl)-1-[1-(4-fluorophenyl)indazol-5-yl]oxy-propan-2-yl]-1-methyl-cyclopropane-1-carboxamide], the IC50 was 4.2 nM.
With `C[C@H](NC(=O)C(C)(C)C)[C@H](Oc1ccc2c(cnn2-c2ccc(F)cc2)c1)c1ccc(Cl)cc1` [Example 183, N-[(1R,2S)-1-(4-chlorophenyl)-1-[1-(4-fluorophenyl)indazol-5-yl]oxy-propan-2-yl]-2,2-dimethyl-propanamide], the IC50 came to 4.6 nM.
Take `Cc1cc([C@@H](Oc2ccc3c(cnn3-c3ccc(F)cc3)c2)[C@H](C)NC(=O)C(F)(F)F)ccc1Cl` [Example 168, N-[(1R,2S)-1-(4-chloro-3-methyl-phenyl)-1-[1-(4-fluorophenyl)indazol-5-yl]oxy-propan-2-yl]-2,2,2-trifluoro-acetamide]: the IC50 was found to be 6.2 nM.
Consider `C[C@@H](NC(=O)C(F)(F)F)[C@H](COc1ccccc1)Oc1ccc2c(cnn2-c2ccc(F)cc2)c1` (single isomer, unassigned) [Example 69, 2,2,2-trifluoro-N-[2R*,3R*-3-[1-(4-fluorophenyl)indazol-5-yl]oxy-4-phenoxy-butan-2-yl]acetamide], for which the half-inhibitory concentration (IC50) is 76 nM.
For `CCc1ccc([C@@H](Oc2ccc3c(cnn3-c3ccc(F)cc3)c2)[C@H](C)NC(=O)C(F)(F)F)cc1` [Example 46, N-[(1R,2S)-1-(4-ethylphenyl)-1-[1-(4-fluorophenyl)indazol-5-yl]oxy-propan-2-yl]-2,2,2-trifluoro-acetamide], the IC50 amounted to 3.4 nM.
Regarding `COc1cccc([C@@H](Oc2ccc3c(cnn3-c3ccc(F)cc3)c2)[C@H](C)NC(=O)C(C)(F)F)c1` [Example 302, 2,2-difluoro-N-((1R,2S)-1-(1-(4-fluorophenyl)-1H-indazol-5-yloxy)-1-(3-methoxyphenyl)propan-2-yl)propanamide], the IC50 was 3.2 nM.
For `C[C@H](NC(=O)C(C)(C)O)[C@H](Oc1ccc2c(cnn2-c2ccc(F)cc2)c1)c1ccccc1` [Example 5, N-[(1R,2S)-1-[1-(4-fluorophenyl)indazol-5-yl]oxy-1-phenyl-propan-2-yl]-2-hydroxy-2-methyl-propanamide], the IC50 was found to be 2.1 nM.
Turning to `COCC(=O)N[C@@H](C)[C@H](Oc1ccc2c(cnn2-c2ccccn2)c1)c1ccccc1` [Example 118, 2-Methoxy-N-[1-methyl-2-phenyl-2-(1-pyridin-2-yl-1H-indazol-5-yloxy)-ethyl]acetamide], the IC50 came out at 2.9 nM.
To `Cc1ccc(C)c([C@@H](Oc2ccc3c(cnn3-c3ccc(F)cc3)c2)[C@H](C)NC(=O)C(C)(C)CO)c1` [Example 254, N-[(1R,2S)-1-(2,5-dimethylphenyl)-1-[1-(4-fluorophenyl)indazol-5-yl]oxy-propan-2-yl]-3-hydroxy-2,2-dimethyl-propanamide] belongs 8.5 nM; to `Cc1ccc([C@@H](Oc2ccc3c(cnn3-c3ccc(F)cc3)c2)[C@H](C)NC(=O)C(C)(C)F)cc1C` [Example 240, N-[(1R,2S)-1-(3,4-dimethylphenyl)-1-[1-(4-fluorophenyl)indazol-5-yl]oxy-propan-2-yl]-2-fluoro-2-methyl-propanamide], 5.9 nM.
Regarding `COc1cccc([C@@H](Oc2ccc3c(cnn3-c3ccc(F)cc3)c2)[C@H](C)NC(=O)c2sc(C(F)(F)F)cc2O)c1` [Example 298, N-[(1R,2S)-1-[1-(4-fluorophenyl)indazol-5-yl]oxy-1-(3-methoxyphenyl)propan-2-yl]-3-hydroxy-5-(trifluoromethyl)thiophene-2-carboxamide], the IC50 came to 15 nM.
The figure for `C[C@H](NC(=O)c1ccco1)[C@H](Oc1ccc2c(cnn2-c2ccncc2)c1)c1ccccc1` [Example 115, N-[(1S,2R)-1-Methyl-2-phenyl-2-{[1-(4-pyridyl)-1H-indazol-5-yl]oxy}ethyl]furan-2-carboxamide] is 3.8 nM.
`COc1ccc([C@@H](Oc2ccc3c(cnn3-c3ccc(F)cc3)c2)[C@H](C)NC(=O)C(C)(C)C)cc1F` [Example 177, N-[(1R,2S)-1-(3-fluoro-4-methoxy-phenyl)-1-[1-(4-fluorophenyl)indazol-5-yl]oxy-propan-2-yl]-2,2-dimethyl-propanamide]: the IC50 came out at 3.9 nM.
Take `COc1cccc([C@@H](Oc2ccc3c(cnn3-c3ccc(F)cc3)c2)[C@H](C)NC(=O)c2nnc(C)o2)c1` [Example 277, N-[(1R,2S)-1-[1-(4-fluorophenyl)indazol-5-yl]oxy-1-(3-methoxyphenyl)propan-2-yl]-5-methyl-1,3,4-oxadiazole-2-carboxamide]: the IC50 came to 4.7 nM.
The figure for `CC[S+]([O-])Cc1ccc([C@@H](Oc2ccc3c(cnn3-c3ccc(F)cc3)c2)[C@H](C)NC(=O)C(F)(F)F)cc1` (stereo partly drawn) [Example 26, N-[(1R,2S)-1-[4-(ethylsulfinylmethyl)phenyl]-1-[1-(4-fluorophenyl)indazol-5-yl]oxy-propan-2-yl]-2,2,2-trifluoro-acetamide] is 5.9 nM; for `COC[C@H](NC(=O)c1ccco1)[C@H](Oc1ccc2c(cnn2-c2ccc(F)cc2)c1)c1cccc(F)c1` [Example 112, N-[(1S)-(2R)-(3-Fluorophenyl)-2-{[1-(4-fluorophenyl)-1H-indazol-5-yl]oxy}-1-(methoxymethyl)ethyl]furan-2-carboxamide] it is 21 nM; for `COc1c(C)cc([C@@H](Oc2ccc3c(cnn3-c3ccc(F)cc3)c2)[C@H](C)NC(=O)C2(C)CC2)cc1C` [Example 221, N-[(1R,2S)-1-[1-(4-fluorophenyl)indazol-5-yl]oxy-1-(4-methoxy-3,5-dimethyl-phenyl)propan-2-yl]-1-methyl-cyclopropane-1-carboxamide] it is 4.4 nM.
Regarding `C[C@H](NC(=S)NCc1ccco1)[C@H](Oc1ccc2c(cnn2-c2ccc(F)cc2)c1)c1ccccc1` [Example 108, 1-{(1S,2R)-2-{[1-(4-Fluorophenyl)-1H-indazole-5-yl]oxy}-1-methyl-2-phenylethyl}-3-(2-furylmethyl)thiourea], the IC50 was determined as 4.9 nM.
`COc1cccc([C@@H](Oc2ccc3c(cnn3-c3ccc(F)cc3)c2)[C@H](C)NC(=O)c2cc[nH]n2)c1` [Example 279, N-[(1R,2S)-1-[1-(4-fluorophenyl)indazol-5-yl]oxy-1-(3-methoxyphenyl)propan-2-yl]-1H-pyrazole-3-carboxamide]: the IC50 is 3.8 nM.
In the case of `COc1cccc([C@@H](Oc2ccc3c(cnn3-c3ccc(F)cc3)c2)[C@H](C)NC(=O)c2ccc(C)s2)c1` [Example 131, N-[(1R,2S)-1-[1-(4-fluorophenyl)indazol-5-yl]oxy-1-(3-methoxyphenyl)propan-2-yl]-5-methyl-thiophene-2-carboxamide], the IC50 was 4 nM.
For `C[C@H](NC(=O)C(C)(C)C)[C@H](Oc1ccc2c(cnn2-c2ccc(F)cc2)c1)c1ccc2c(c1)OCO2` [Example 189, N-[(1R,2S)-1-benzo[1,3]dioxol-5-yl-1-[1-(4-fluorophenyl)indazol-5-yl]oxy-propan-2-yl]-2,2-dimethyl-propanamide], the IC50 turned out to be 7.8 nM.
With `C[C@H](NC(=O)C(F)(F)F)[C@H](Oc1ccc2c(cnn2-c2cccc(CN(C)C)c2)c1)c1ccccc1` [Example 146, N-((1R,2S)-1-(1-(3-((dimethylamino)methyl)phenyl)-1H-indazol-5-yloxy)-1-phenylpropan-2-yl)-2,2,2-trifluoroacetamide], the IC50 was 78 nM.
